{"source": "patent US9850221B2", "about": "“Sulfated and unsulfated flavonoid oligomers as cancer therapeutics” (VIRGINIA COMMONWEALTH UNIVERSITY, priority 2013, dated 2017)", "type_in_all_cases": "cell-based, human", "key": {"[1]": {"test_system": "self-renewal factors OCT4, BMI-1, c-MYC", "test": "Western blot of self-renewal factors in spheroids", "conditions": "100 μM, HT-29", "method": "(§1) Western Blotting Analysis. Western blot analysis was performed according to the standard protocol described in the literature. Briefly, HT-29 cells were plated in serum-free SCM in a low adhesion 6-well plate to obtain spheroids. Mature spheroids were treated on day 4 after plating, with vehicle or NSGMs for indicated time and cells were solubilized in lysis buffer (20 mM Na3PO4, 100 mM NaCl, 2 mM EDTA, 1% Nonidet P-40, 2.5 mM Na3VO4) containing protease (Roche) as well as phosphatase inhibitor cocktails (Sigma). Following centrifugation at 14,000 g for 15 min, the supernatant was used for Western blot analysis. In all analyses, protein concentration was determined by the Bio-Rad Protein Assay kit (Bio-Rad). Approximately 25-50 μg of protein was separated by polyacrylamide gel electrophoresis and was transferred to PVDF membrane (Bio-Rad). Blocking was done with 5% low fat milk powder for 1 hr followed by overnight incubation with primary antibody (dilution 1:1000): anti-CD44 (Cell Signaling), anti-EpCAM (Cell Signaling), anti-LGR5 (Origene), anti-CD133 ((Miltenyi Biotec), anti-CXCR4 (Abeam), anti-OCT4 (Cell Signaling), anti-BMI-1 (Millipore), anti-c-MYC (Millipore) and anti-CK20 (Abeam). This was followed by incubation with appropriate secondary antibody and protein bands were visualized using the enhanced chemiluminescence detection system and imaged with LAS-3000 Imaging System (FUJIFILM). Densitometry was determined by AIDA image analyzer software (Raytest) and results were calculated as relative intensity compared to control. All experiments were performed at least three times."}, "[2]": {"test_system": "HT-29 cells", "test": "Primary (1°) colonosphere formation assay, HT-29 (Screen 1)", "conditions": "100 μM", "method": "Primary (1°) Colonosphere Formation Assay. For primary sphere formation, cells were plated in non-treated, low adhesion, 96 wells plate at the concentration of 100 cells/100 μL/well in stem cell media (SCM) that consisted of DMEM:F12:AA (Gibco), supplemented with 1×B27 (Gibco), 20 ng/mL epidermal growth factor and 10 ng/mL fibroblast growth factor (Sigma). After four hour of incubation, vehicle (control) or NSGM at the desired concentrations were added to each well (at least in triplicates for each sample). On day five, numbers of spheres ranging from […] in diameter were counted using phase contrast microscope and percent inhibition was calculated compared to control.\nIn this screen, sulfated NSGMs that inhibit HT-29 growth under spheroid conditions, but not under monolayer conditions, were then assessed for retention of 2° and 3° spheroid growth inhibition profiles in the absence of NSGM. The latter screen is of particular importance as primary spheroid growth although selective for CSCs doses not distinguish between non self-renewing progenitors and self-renewing CSCs. […] These 11 NSGMs belonged to G2, G4, G11 and G12 scaffolds but only four of the six G2 molecules, one of the two G4, four of the seven G11 and two of the five G12 molecules satisfied the first screen."}, "[3]": {"test_system": "CSC markers CD44, CD133, EpCAM, LGR5, CXCR-4", "test": "Western blot of CSC markers in HT-29 spheroids", "conditions": "HT-29 spheroids, 100 μM, Western blot densitometry vs vehicle", "method": "as §1"}, "[4]": {"test_system": "LGR5", "test": "Flow cytometry analysis of CSC markers in HT-29 spheroids", "conditions": "100 μM, vs vehicle-treated controls", "method": "Flow Cytometry Analysis. Human colon cancer HT-29 cells, grown in spheroid or monolayer condition were treated with vehicle or NSGMs for 24 hours, were trypsinized and single cells were re-suspended at 10^6 cells/mL in PBS buffer. Cells were incubated with fluorophore conjugated antibody for 30 minutes at 4° C. and washed once with PBS buffer prior to analysis. Following antibody and dilution were used: LGR5-PE) (Dilution 1:50, Origene), DCLK1 (Dilution 1:33, Abeam). Cell sorting was performed using FACSAria™ II High-Speed Cell Sorter (BD Biosciences) and data were analyzed with FCS Express 4 Flow Cytometry software (De-Novo Software)."}, "[5]": {"test_system": "HCT-116 cells, grown in spheroid condition", "test": "Apoptosis assay (annexin V/propidium iodide and acridine orange/ethidium bromide)", "conditions": "annexin V labeling and acridine orange/ethidium bromide staining, 100 μM, 24 hours, vs vehicle", "method": "Apoptosis Assay. Human colon cancer HCT-116 cells, grown in spheroid condition were treated with vehicle or NSGMs for 24 hours. Following which cells were trypsinized and single cells were re-suspended at 10^6 cells/mL in PBS buffer. Two different methods were used to assess apoptosis induction. In the first methods, cells were incubated with propidium iodide and Annexin V-APC (ebioscience) and flow cytometric analyses were performed as above. […] Briefly, a small volume of cell suspension was mounted on a glass slide and incubated with 1 μl of AO/EB solution and mixed gently just prior to microscopy and quantification. At least 500 cells in 10-15 fields were examined in each sample using Nikon ECLIPSE E800M fluorescence microscope using 20× objective. […] The data was expressed as apoptosis index=[([apoptotic cells (NSGMs)/total cells (NSGMs)]/[apoptotic cells (vehicle)/total cells (vehicle)])."}}}
{"compound": "O=c1cc(-c2ccc(OS(=O)(=O)O)c(OS(=O)(=O)O)c2)oc2cc(OS(=O)(=O)O)cc(OS(=O)(=O)O)c12", "note": "[G1.4]", "values": [{"measurement": "BMI-1 expression", "setting": "[1]", "value": "no such changes"}, {"measurement": "c-MYC expression", "setting": "[1]", "value": "no such changes"}, {"measurement": "Screen 1 outcome (spheroid versus monolayer growth inhibition)", "setting": "[2]", "value": "completely failed"}, {"measurement": "reduction of expression of CSC markers (CD44, CD133, EpCAM, LGR5, CXCR-4)", "setting": "[3]", "value": "no effect"}, {"measurement": "reduction in LGR5 (hi) cells", "setting": "[4]", "value": "< 15", "unit": "%"}, {"measurement": "induction of apoptosis in spheroid cells", "setting": "[5]", "value": "no such effects"}]}
